Laboratory results from patent US20090163451A1, “METHODS FOR TREATING VISCERAL PAIN” (priority 2007, published 2009).
“Also recorded” adds a separate entry of the source.

Tests used:
[1] = tested on: evoked release of calcitonin gene-related peptide from the rat isolated spinal cord; conditions: rat isolated spinal cord (Arvieu et al.); cited from earlier work
[2] = tested on: capsaicin-induced hyperemia in the sciatic nerve; conditions: Zochodne and Ho; cited from earlier work
[3] = tested on: thermal hypersensitivity induced by intraplantar injection of carrageenan; conditions: injected systemically at similar doses used in the present study (Bingham et al.); cited from earlier work
[4] = tested on: rats with experimental colonic hypersensitivity (butyrate), referred lumbar hypersensitivity; experiment: colonic hypersensitivity model (intracolonic sodium butyrate): referred lumbar hypersensitivity, von Frey mechanical threshold; type: in vivo, Sprague Dawley rats; conditions: for behavior of rats previously injected with intracolonic vehicle: control rats
Method: (§1) Adult male Sprague Dawley rats (Harlan, Indianapolis, Ind.), weighing 150-200 g, were maintained in a climate-controlled room with ad lib food and water on a 12 hour/12 hour light/dark cycle (lights on at 07:00 hours). All procedures followed the policies of the International Association for the Study of Pain and the NIH guidelines for the handling and use of laboratory animals. Studies were approved by the University of Arizona IACUC.
(§2) Dibutyltin dichloride (DBTC) was obtained from Sigma-Aldrich (Milwaukee, Wis.) and dissolved in 100% ethanol to a concentration of 8 mg/kg (Sparmann et al., Gastroenterology. 112:1664-1672 (1997))). Sumatriptan succinate was obtained from Toronto Research Chemicals (ON, Canada) and dissolved in saline to 1, 3, and 10 μg for RVM microinjections and 100, 200, and 300 μg/kg for systemic injections (Kayser et al., Br J Pharmacol. 137:1287-1297 (2002)). The 5HT1B antagonist isamoltane and the 5HT1D antagonist BRL15722 were obtained from Tocris (Elllisville, Mo.). Isamoltane was dissolved in saline to a concentration of 3 μg for RVM microinjection and to a concentration of 4 mg/kg (Ottani et al., Eur J Pharmacol. 497:181-186 (2004)) for system application. BRL15722 was dissolved in 10% DMSO to a concentration of 3 μg for RVM microinjection and to a concentration of 0.3 mg/kg (Ottani et al., Eur J Pharmacol. 497:181-186 (2004)) for systemic application.
(§3) For the experiments involving microinjection of drugs into the RVM, rats underwent surgeries to implant RVM cannulae. After five days of recovery, rats received either intravenous injection of DBTC to induce pancreatitis, or intracolonic injection of sodium butyrate to induce colonic hypersensitivity. Animals were monitored for development of visceral hypersensitivity on the subsequent days. On day six after either induction of pancreatitis or colonic hypersensitivity, animals underwent baseline behavioral measurements. Sumatriptan was microinjected into the RVM at different doses (separate groups of rats for each dose) and animals were monitored behaviorally for two h after sumatriptan application in the RVM. For experiments investigating the effects of serotonin antagonists, the drugs were microinjected concurrently with injection of sumatriptan and animals were monitored for the subsequent two h. Separate groups of animals were microinjected with the antagonists alone to control for possible effects of the drugs by themselves.
(§4) For the experiments involving systemic drug administration, rats received intravenous injection of DBTC to induce pancreatitis or intracolonic injection of sodium butyrate to induce colonic hypersensitivity. On day six after either induction of pancreatitis of colonic hypersensitivity, animals underwent baseline behavioral measurements. Sumatriptan was injected intraperitoneally at different doses (separate groups of rats for each dose) and the animals were monitored behaviorally every 20 min for two h after injection. For experiments investigating the effects of serotonin antagonists, the drugs were injected intraperitoneally immediately following the injection of sumatriptan (separate groups for each respective antagonist). Separate groups of animals were injected with the antagonists alone. Additionally, separate groups of animals were injected with sumatriptan systemically and microinjected with the antagonists in the RVM to determine if the RVM is a site of action for systemically applied sumatriptan. The microinjection of antagonists into the RVM was done immediately following the systemic injection of sumatriptan. All animals were tested for behavioral signs of hypersensitivity every 20 min for two h after the end of the injections.
Colonic hypersensitivity was induced by enemas of a sodium butyrate solution ([…]) twice daily for 3 days (Bourdu et al., Gastroenterology. 128:1996-2008 (2005)). […]

[5] = tested on: acetic acid-induced abdominal writhing in mice; conditions: mice (Ghelardini et al.; Jain et al.); cited from earlier work
[6] = tested on: rats with experimental colonic hypersensitivity (butyrate), referred lumbar hypersensitivity; experiment: colonic hypersensitivity model (intracolonic sodium butyrate): referred lumbar hypersensitivity, von Frey mechanical threshold; type: in vivo, Sprague Dawley rats; conditions: 10 μg IV, up to 120 minutes postinjection, data not shown
[7] = tested on: rats with experimental pancreatitis (DBTC), referred abdominal hypersensitivity; experiment: experimental pancreatitis model (IV DBTC): referred abdominal hypersensitivity, withdrawals to von Frey filament; type: in vivo, Sprague Dawley rats
Method: as §1, §2
as §3, with “Sumatriptan was microinjected into the RVM at different doses (separate groups of rats for each dose) and animals were monitored behaviorally for two h after sumatriptan application in the RVM.” left out
as §4, with “Sumatriptan was injected intraperitoneally at different doses (separate groups of rats for each dose) and the animals were monitored behaviorally every 20 min for two h after injection. For experiments investigating the effects of serotonin antagonists, the drugs were injected intraperitoneally immediately following the injection of sumatriptan (separate groups for each respective antagonist).” left out
Pancreatitis was produced by a tail vein injection of dibutyltin dichloride (DBTC, Aldrich, Milwaukee, Wis., 0.25 cc) dissolved in 100% ethanol at a dose of 8 mg/kg under isofluorane anesthesia (2-3 liters/min, 4.0%/vol until anesthetized, then 2.5%/vol throughout the procedure; Vera-Portocarrero et al., Gastroenterology. 130:2155-2164 (2006)). Control animals were injected with the vehicle solution only (100% ethanol, 0.25 mL).
Referred abdominal hypersensitivity in the pancreatitis model was quantified by measuring the number of withdrawal events evoked by application of a calibrated von Frey filament (determined by either abdominal withdrawal, licking of the abdominal area, or whole body withdrawal). Rats were placed inside Plexiglas boxes on an elevated fine fiberglass screen mesh and acclimated for 30 minutes before testing. […]

[8] = biological target: β-2 adrenergic receptors (Homo sapiens, UniProt P07550); conditions: reported; cited from earlier work
Sequence of β-2 adrenergic receptors (P07550 whole entry): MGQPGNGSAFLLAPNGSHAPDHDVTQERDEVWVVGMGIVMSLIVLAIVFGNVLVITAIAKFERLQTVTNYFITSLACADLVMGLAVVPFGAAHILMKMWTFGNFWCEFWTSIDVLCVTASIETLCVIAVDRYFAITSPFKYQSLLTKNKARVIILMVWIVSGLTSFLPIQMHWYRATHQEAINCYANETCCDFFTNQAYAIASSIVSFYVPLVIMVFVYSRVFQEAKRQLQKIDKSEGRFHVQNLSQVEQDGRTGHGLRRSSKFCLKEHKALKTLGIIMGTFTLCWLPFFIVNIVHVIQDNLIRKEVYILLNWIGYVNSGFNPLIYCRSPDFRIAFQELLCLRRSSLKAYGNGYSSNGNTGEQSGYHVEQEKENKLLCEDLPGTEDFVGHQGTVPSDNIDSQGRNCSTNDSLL

[9] = RVM microinjection, butyrate rats

## CNS(=O)(=O)Cc1ccc2[nH]cc(CCN(C)C)c2c1 [sumatriptan]
[1]
  evoked release of calcitonin gene-related peptide: inhibits
[2]
  capsaicin-induced hyperemia in the sciatic nerve: inhibits capsaicin-induced hyperemia
[3]
  thermal hypersensitivity induced by intraplantar carrageenan: attenuated
[4]; IP sumatriptan 100, 200, 300 μg/kg
  mechanical threshold of rats injected with sodium butyrate: restored tactile thresholds of butyrate-treated rats in a dose dependent manner; also recorded: increased the mechanical threshold of rats injected with sodium butyrate in a time- and dose-dependent manner
[4]; IP sumatriptan
  behavior of rats previously injected with intracolonic vehicle: did not modify the behavior
[4]; IP, butyrate rats
  time for which systemic sumatriptan was active postinjection: 60 min
  time of peak effect: 40 min
  time point by which the effect dissipated: up to 100 minute
  time to reversal of reduced mechanical threshold after administration: ≤ 20 min
[4]; IP, butyrate rats, lumbar mechanical threshold
  A50 (and 95% CI) dose for IP sumatriptan: 232.6 (182.2-322.8) μg/kg
[4]; RVM microinjection 1, 3, 10 μg, butyrate rats
  lumbar hypersensitivity / lumbar dermatome mechanical threshold after RVM administration: restored tactile thresholds of butyrate-treated rats in a dose dependent manner; also recorded: time- and dose-dependent attenuation of lumbar hypersensitivity
[4]; [9]
  time by which the effects of RVM sumatriptan dissipated: ≤ 100 min
  time for which the effects of RVM sumatriptan endured: approximately 60 minutes
  time of peak effect: 40 min
  time to reversal of reduced mechanical threshold after administration: ≤ 20 min
[4]; RVM microinjection
  behavior of rats previously injected with intracolonic vehicle: did not modify the behavior
[4]; microinjection into the RVM, butyrate rats, lumbar mechanical threshold
  A50 (and 95% CI) dose for RVM sumatriptan: 3.2 (2.0-12.5) μg
[4]; sumatriptan 10 μg into the RVM, butyrate rats, v. RVM saline
  mechanical threshold, single RVM dose: increased the mechanical threshold
[4]; sumatriptan 300 μg/kg IP, butyrate rats, v. saline
  mechanical threshold, single dose of systemic sumatriptan: increased the mechanical threshold
[5]
  antinociceptive efficacy in acetic acid-induced abdominal writhing: has antinociceptive efficacy
[6]
  reduced lumbar mechanical threshold after IV sumatriptan: did not reverse the reduction in threshold
[7]; 10 μg IV, DBTC rats, up to 120 minutes postinjection, data not shown
  frequency of abdominal withdrawals after IV sumatriptan: not altered
[7]; IP sumatriptan 100, 200, 300 μg/kg, day 6 after DBTC
  frequency of withdrawals in DBTC-injected rats: reduced abdominal withdrawals in pancreatic rats in a dose-dependent manner; also recorded: reduced the frequency of withdrawals in DBTC-injected rats in a time- and dose-dependent manner
[7]; IP sumatriptan, rats without pancreatitis
  responses to abdominal stimulation in vehicle-injected control rats: did not alter responses to abdominal stimulation
[7]; IP, DBTC rats
  time for which systemic sumatriptan was active postinjection: up to 100 minutes
  time of peak effect: 40 min
  time point at which the effect dissipated: 120 min
  time to attenuation of withdrawals after administration: ≤ 20 min
[7]; IP, day 6 after IV DBTC, frequency of abdominal withdrawals, A50 = dose producing a 50% response
  A50 dose (and 95% confidence interval) for IP sumatriptan: 172.4 (124.5-386.7) μg/kg
[7]; RVM microinjection 1, 3, 10 μg, DBTC rats
  frequency of withdrawals after RVM administration: reduced the number of withdrawals in a dose-dependent manner; also recorded: attenuated the increased frequency of withdrawals
[7]; RVM microinjection, DBTC rats
  time by which the effects of RVM sumatriptan dissipated: ≤ 100 min
  time for which the effects of RVM sumatriptan endured: approximately 60 minutes
  time of peak effect: 40 min
  time to attenuation of withdrawals after administration: ≤ 20 min
[7]; RVM microinjection, rats without pancreatitis
  responses to abdominal stimulation in vehicle-injected rats: did not alter responses to abdominal stimulation
[7]; microinjection into the RVM, DBTC rats, frequency of withdrawals
  A50 dose (and 95% CI) for RVM sumatriptan: 4.3 (3.1-16.2) μg
[7]; sumatriptan 10 μg into the RVM, DBTC rats, v. RVM saline
  frequency of withdrawals, single RVM dose: attenuated the frequency of withdrawals; also recorded: reduced the frequency of withdrawals
[7]; sumatriptan 300 μg/kg IP, DBTC rats, v. saline
  frequency of withdrawals, single dose of systemic sumatriptan: attenuated the frequency of withdrawals; also recorded: reduced the frequency of withdrawals

## CC(C)NCC(O)COc1ccccc1-n1cccc1 (stereo not drawn) [isamoltane]
[8]
  activity at β-2 adrenergic receptors: reported to have activity at β-2 adrenergic receptors
[4]; sumatriptan 10 μg RVM, antagonist 3 μg RVM, butyrate rats
  effect of concurrent RVM antagonist on the effect of RVM sumatriptan: blocked the effects of sumatriptan; also recorded: blocked the effect of RVM sumatriptan
[4]; sumatriptan 300 μg/kg IP, antagonist 3 μg RVM, butyrate rats
  effect of RVM antagonist on the effect of systemic sumatriptan: failed to antagonize the effects of systemic sumatriptan; also recorded: did not modify the effect of systemic sumatriptan
[4]; sumatriptan 300 μg/kg IP, isamoltane 4 mg/kg IP or BRL15722 0.3 mg/kg IP, butyrate rats
  effect of concurrent systemic (IP) antagonist on the effect of systemic sumatriptan: reduced the effects of sumatriptan; also recorded: blocked the effect of systemic sumatriptan
[7]; sumatriptan 10 μg RVM, antagonist 3 μg RVM, DBTC rats
  effect of concurrent RVM antagonist on the effect of RVM sumatriptan: blocked the effect of sumatriptan
[7]; sumatriptan 300 μg/kg IP, antagonist 3 μg RVM, DBTC rats
  effect of RVM antagonist on the effect of systemic sumatriptan: failed to antagonize the effects of systemic sumatriptan; also recorded: did not modify the effect of systemic sumatriptan
[7]; sumatriptan 300 μg/kg IP, isamoltane 4 mg/kg IP or BRL15722 0.3 mg/kg IP, DBTC rats
  effect of concurrent systemic (IP) antagonist on the effect of systemic sumatriptan: reduced the effects of sumatriptan; also recorded: blocked the effects of sumatriptan
